The source made the active and inactive calls.
Key:
[1] = Selectivity ratio of IC50 for cytotoxicity against human HBE cells to MIC80 for antifungal activity against wild-type Candida albicans SC5314; type: toxicity, cell-based
[2] = system: Candida albicans; experiment: Antifungal activity against wild-type Candida albicans SC5314 assessed as inhibition of fungal growth measured after 24 hrs by CLSI based microtiter plate analysis; type: functional
[3] = system: Candida albicans; experiment: Antifungal activity against clinical isolate Candida albicans YEM13 overexpressing efflux pump MdrL assessed as inhibition of fungal growth measured after 24 hrs by CLSI based microtiter plate analysis; type: functional
[4] = system: Candida albicans; experiment: Antifungal activity against clinical isolate Candida albicans YEM15 overexpressing efflux pump CdrL and Cdr2 assessed as inhibition of fungal growth measured after 24 hrs by CLSI based microtiter plate analysis; type: functional
[5] = system: Candida albicans; experiment: Antifungal activity against clinical isolate Candida albicans SCUPC2R14MPG2A harbouring UPC2 mutation overexpressing […] Erg11 assessed as inhibition of fungal growth measured after 24 hrs by CLSI based microtiter plate analysis; type: functional
[6] = system: Candida albicans; experiment: Antifungal activity against clinical isolate Candida albicans SCMRRIR34MPG2A harbouring MRR1 mutation overexpressing efflux pump MdrL assessed as inhibition of fungal growth measured after 24 hrs by CLSI based microtiter plate analysis; type: functional
[7] = system: Candida albicans; experiment: Antifungal activity against clinical isolate fluconazole-resistant Candida albicans DSY296 harbouring TAC1 mutation overexpressing efflux pump CdrL and Cdr2 assessed as inhibition of fungal growth measured after 24 hrs by CLSI based microtiter plate analysis; type: functional
[8] = system: Candida albicans; experiment: Antifungal activity against clinical isolate fluconazole-resistant Candida albicans G5 harbouring MRR1 mutation overexpressing MdrL assessed as inhibition of fungal growth measured after 24 hrs by CLSI based microtiter plate analysis; type: functional
[9] = system: Candida albicans; experiment: Antifungal activity against clinical isolate fluconazole-resistant Candida albicans Gu5 harbouring TAC1 mutation overexpressing efflux pump CdrL and Cdr2 assessed as inhibition of fungal growth measured after 24 hrs by CLSI based microtiter plate analysis; type: functional
[10] = system: [Candida] auris; experiment: Antifungal activity against clinical isolate fluconazole-resistant Candida auris CBS12774 assessed as inhibition of fungal growth measured after 24 hrs by CLSI based microtiter plate analysis; type: functional; details: Candidozyma auris
[11] = system: [Candida] auris; experiment: Antifungal activity against clinical isolate fluconazole-resistant Candida auris CBS12776 assessed as inhibition of fungal growth measured after 24 hrs by CLSI based microtiter plate analysis; type: functional; details: Candidozyma auris
[12] = system: Nakaseomyces glabratus; experiment: Antifungal activity against clinical isolate fluconazole-resistant Candida glabrata CG2 assessed as inhibition of fungal growth measured after 24 hrs by CLSI based microtiter plate analysis; type: functional
[13] = system: Candida tropicalis; experiment: Antifungal activity against clinical isolate fluconazole-resistant Candida tropicalis CT10 assessed as inhibition of fungal growth measured after 24 hrs by CLSI based microtiter plate analysis; type: functional
[14] = Drug accumulation in wild-type Candida albicans SC5314 at 50 microg/ml incubated for 3 hrs by HPLC analysis; type: ADME; details: dose 50 µg/ml
[15] = system: Candida albicans; experiment: Induction of drug resistance in wild-type Candida albicans SC5314 assessed as change in MIC at 0.5 times of MIC measured after 30 passages by broth microdilution method; type: functional
[16] = system: Candida albicans; experiment: Antifungal activity against wild-type Candida albicans SC5314 assessed as decrease in viable count measured after 24 hrs by colony-counting based time-killing kinetics assay; type: functional, organism-based; details: dose 2-4 µg/ml
[17] = system: Candida albicans; experiment: Antifungal activity against wild-type Candida albicans SC5314 assessed as decrease in viable count at 2 to 4 microg/ml by colony-counting based time-killing kinetics assay; type: functional, organism-based; details: dose 2-4 µg/ml, time 24.0 hrs, TDE = time-dependent effect
[18] = system: Candida albicans; experiment: Antifungal activity against fluconazole-resistant clinical isolate Candida albicans Gu5 assessed as decrease in viable count measured after 24 hrs by colony-counting based time-killing kinetics assay; type: functional, organism-based; details: dose 2-4 µg/ml
[19] = system: Candida albicans; experiment: Antifungal activity against fluconazole-resistant clinical isolate Candida albicans Gu5 assessed as decrease in viable count at 2 to 4 microg/ml by colony-counting based time-killing kinetics assay; type: functional, organism-based; details: dose 2-4 µg/ml, time 24.0 hrs, TDE = time-dependent effect
[20] = Selectivity ratio of IC50 for cytotoxicity against human HBE cells to MIC80 for antifungal activity against clinical isolate fluconazole-resistant Candida glabrata CG2; type: toxicity, cell-based
[21] = Selectivity ratio of IC50 for cytotoxicity against human HBE cells to MIC80 for antifungal activity against clinical isolate Candida albicans YEM13 overexpressing efflux pump MdrL; type: toxicity, cell-based
[22] = Selectivity ratio of IC50 for cytotoxicity against human HBE cells to MIC80 for antifungal activity against clinical isolate Candida albicans YEM15 overexpressing efflux pump CdrL and Cdr2; type: toxicity, cell-based
[23] = Selectivity ratio of IC50 for cytotoxicity against human HBE cells to MIC80 for antifungal activity against clinical isolate Candida albicans SCUPC2R14MPG2A harbouring UPC2 mutation overexpressing […]; type: toxicity, cell-based
[24] = Selectivity ratio of IC50 for cytotoxicity against human HBE cells to MIC80 for antifungal activity against clinical isolate Candida albicans SCMRRIR34MPG2A harbouring MRR1 mutation overexpressing efflux pump MdrL; type: toxicity, cell-based
[25] = Selectivity ratio of IC50 for cytotoxicity against human HBE cells to MIC80 for antifungal activity against clinical isolate fluconazole-resistant Candida albicans DSY296 harbouring TAC1 mutation overexpressing efflux pump CdrL and Cdr2; type: toxicity, cell-based
[26] = Selectivity ratio of IC50 for cytotoxicity against human HBE cells to MIC80 for antifungal activity against clinical isolate fluconazole-resistant Candida albicans Gu5 harbouring TAC1 mutation overexpressing efflux pump CdrL and Cdr2; type: toxicity, cell-based
[27] = Selectivity ratio of IC50 for cytotoxicity against human HBE cells to MIC80 for antifungal activity against clinical isolate fluconazole-resistant Candida albicans CA632; type: toxicity, cell-based
[28] = Selectivity ratio of IC50 for cytotoxicity against human HBE cells to MIC80 for antifungal activity against clinical isolate fluconazole-resistant Candida auris CBS12774; type: toxicity, cell-based
[29] = Selectivity ratio of IC50 for cytotoxicity against human HBE cells to MIC80 for antifungal activity against clinical isolate fluconazole-resistant Candida auris CBS12776; type: toxicity, cell-based
[30] = Selectivity ratio of IC50 for cytotoxicity against human HBE cells to MIC80 for antifungal activity against clinical isolate fluconazole-resistant Cryptococcus neoformans H99; type: toxicity, cell-based
[31] = system: Candida albicans; experiment: Inhibition of biofilm formation in wild-type Candida albicans SC5314 at 2 microg/ml measured after 24 hrs by alamar blue staining based colorimetric analysis; type: functional, organism-based; details: dose 2.0 µg/ml
[32] = system: Candida albicans; experiment: Inhibition of biofilm formation in fluconazole-resistant clinical isolate Candida albicans Gu5 at 2 microg/ml measured after 24 hrs by alamar blue staining based colorimetric analysis; type: functional, organism-based; details: dose 2.0 µg/ml
[33] = system: Candida albicans; experiment: Inhibition of biofilm formation in wild-type Candida albicans SC5314 at 8 microg/ml measured after 24 hrs by alamar blue staining based colorimetric analysis; type: functional
[34] = system: [Candida] auris; experiment: Inhibition of biofilm formation in clinical isolate fluconazole-resistant Candida auris CBS12774 measured after 24 hrs by alamar blue staining based colorimetric analysis; type: functional, organism-based; details: Candidozyma auris, dose 4-32 µg/ml
[35] = Toxicity in BALB/c mouse infected with clinical isolate fluconazole-resistant Candida albicans Gu5 assessed as animal survival rate at 6 mg/kg, ip administered on day 1 and day 3 post fungal infection measured after 7 days; type: organism-based; details: in vivo, 168 h, time 7 day
[36] = system: Candida albicans; experiment: Antifungal activity against clinical isolate fluconazole-resistant Candida albicans Gu5 infected in BALB/c mouse assessed as fold reduction in kidney fungal burden at 6 mg/kg, ip administered on day 1 and day 3 post fungal infection measured after 7 days; type: functional; details: time 7 day

C=C1C(=O)[C@@]2(C)CC[C@@H]3[C@@]1(CC[C@H]1[C@@]3(C)CCC[C@@]1(C)C(=O)OCCCOc1ccc(C(=N)N)cc1)C2
inactive: MIC [2]
2 µg/mL: MIC80 [6] | MIC80 [7] | MIC80 [9] | MIC80 [10] | MIC80 [11] | MIC80 [12] | MIC80 [13]
8: selectivity ratio [1] | selectivity ratio [20] | selectivity ratio [21] | selectivity ratio [22] | selectivity ratio [23] | selectivity ratio [24] | selectivity ratio [25] | selectivity ratio [26] | selectivity ratio [27] | selectivity ratio [28] | selectivity ratio [29] | selectivity ratio [30]
40%: Survival [35]
Active: Drug uptake [14]
1 µg/mL: MIC80 ([2]; Candida albicans, SC5314, 24 h, read-out: MIC80) | MIC80 [3] | MIC80 [4] | MIC80 [5] | MIC80 [8]
~80.2%: inhibition at 8 µg/mL [33]
active: Activity [15] | Activity [16] Dose-Dependent Effect | Activity [17] Tde | Activity [18] Dose-Dependent Effect | Activity [19] Tde | inhibition [31] | inhibition [32] | inhibition [34] Dose-Dependent Effect
~50: fold change (FC) [36]

Reference: ChEMBL document CHEMBL5365543, “Benzamidine Conjugation Converts Expelled Potential Active Agents into Antifungals against Drug-Resistant Fungi” (J Med Chem, 2023)
